25 molecules from patent US20250353857A1, “COMPOUND ACTIVE AS INHIBITOR OF COLONY STIMULATION FACTOR-1 RECEPTOR (CSF-1 R)” (priority 2022, published 2025) can be followed below.

Test [1] has as its system P-MAPK (ERK1/2) in CSF-1 stimulated bone-marrow derived macrophages. Briefly: Effect of CSF1R inhibitors on MAPK signaling in mouse bone-marrow derived macrophages. Type of test: cell-based. The conditions noted are these: fold change relative to PLX3397 (IC50 inhibitor/IC50 PLX3397), P-MAPK/total MAPK, 10 ng/mL CSF-1.
The target in a further test is CSF1R (Homo sapiens (Human), UniProt P07333). Briefly: CSF1R enzymatic inhibitory assay (Invitrogen Z'-LYTE, FRET).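 Note: kinase phosphorylates a tyrosine on a coumarin/fluorescein FRET peptide, a protease cuts peptide left unphosphorylated, inhibition quantified from the donor-to-acceptor emission ratio with excitation at 400 nm.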 Type of test: biochemical.
CSF1R, sequence (P07333 20-972): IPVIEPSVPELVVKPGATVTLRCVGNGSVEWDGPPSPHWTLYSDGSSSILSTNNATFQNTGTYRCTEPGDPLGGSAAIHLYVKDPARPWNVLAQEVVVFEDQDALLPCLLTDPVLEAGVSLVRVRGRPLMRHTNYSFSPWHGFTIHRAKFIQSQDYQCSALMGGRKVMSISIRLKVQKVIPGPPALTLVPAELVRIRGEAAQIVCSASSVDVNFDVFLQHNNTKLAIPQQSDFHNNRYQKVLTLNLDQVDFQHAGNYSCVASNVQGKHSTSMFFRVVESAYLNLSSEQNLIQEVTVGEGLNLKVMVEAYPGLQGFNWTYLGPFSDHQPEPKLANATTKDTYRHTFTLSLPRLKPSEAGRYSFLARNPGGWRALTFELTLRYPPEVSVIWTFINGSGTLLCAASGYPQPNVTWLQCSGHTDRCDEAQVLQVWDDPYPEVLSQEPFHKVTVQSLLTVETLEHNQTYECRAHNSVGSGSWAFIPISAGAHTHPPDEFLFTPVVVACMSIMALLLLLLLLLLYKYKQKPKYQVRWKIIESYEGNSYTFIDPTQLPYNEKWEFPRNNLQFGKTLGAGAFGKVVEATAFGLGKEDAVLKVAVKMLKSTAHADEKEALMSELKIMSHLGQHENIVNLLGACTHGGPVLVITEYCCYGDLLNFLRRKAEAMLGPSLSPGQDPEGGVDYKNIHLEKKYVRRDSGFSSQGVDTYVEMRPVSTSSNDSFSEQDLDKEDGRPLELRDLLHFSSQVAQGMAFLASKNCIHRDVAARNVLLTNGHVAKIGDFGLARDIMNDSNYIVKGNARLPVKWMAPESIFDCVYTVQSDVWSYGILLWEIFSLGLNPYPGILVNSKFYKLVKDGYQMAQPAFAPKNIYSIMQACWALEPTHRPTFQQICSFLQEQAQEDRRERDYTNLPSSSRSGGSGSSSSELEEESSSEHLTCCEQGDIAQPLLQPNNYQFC
Where [2] appears, read: Z'-LYTE assay, ATP concentration equal to Km, average of at least 2 titration curves, read-out: CSF1R (IC50).

Read-outs that look alike come from different tables or passages of the source.

On to `CN(CC1CCCCC1)c1ncnc2[nH]c(-c3ccc(CO)cc3)nc12` [TIA03-024, N-Methyl-N-(cyclohexylmethyl)-8-(4-(hydroxymethyl)phenyl)-9H-purin-6-amine], for which the “MAPK (fold)” value in test [1] worked out at 0.9 fold. Further, the IC50 on CSF1R (setting [2]) was found to be 0.7 nM. For `CN(CC1CCCC1)c1ncnc2[nH]c(-c3ccc(CO)cc3)nc12` [TIA03-188, N-Methyl-N-(cyclopentylmethyl)-8-(4-(hydroxymethyl)phenyl)-9H-purin-6-amine] the same measures were 0.6 fold and 0.3 ± 0.2 nM. For the molecule `CN(Cc1ccccc1)c1ncnc2[nH]c(N3CCOCC3)nc12` [TIA04-105, N-Benzyl-N-methyl-8-morpholino-9H-purin-6-amine], the “MAPK (fold)” value in test [1] was over 3 fold. Also, the half-inhibitory concentration (IC50) on CSF1R (setting [2]) came to 16 ± 4 nM. With `CN(CC1CCOCC1)c1ncnc2[nH]c(-c3ccc(CCO)cc3)nc12` [TIA05-014, N-Methyl-N-(oxan-4-ylmethyl)-8-(4-(2-hydroxyethyl)phenyl)-9H-purin-6-amine], the “MAPK (fold)” value in test [1] was determined as 1.7 fold. Further, the half-inhibitory concentration (IC50) on CSF1R (setting [2]) amounted to 0.2 nM. For `OCc1ccc(-c2nc3c(N4CCCC4c4ccccc4)ncnc3[nH]2)cc1` (centres unmarked) [TIA02-176, 8-(4-(Hydroxymethyl)phenyl)-6-(2-phenylpyrrolidin-1-yl)-9H-purine] the same measures were over 3 fold and 1.9 ± 0.2 nM.

With `CC(C)C1CCCN1c1ncnc2[nH]c(-c3ccc(CO)cc3)nc12` (centres unmarked) [TIA04-065], the “MAPK (fold)” value in test [1] is over 3 fold. The half-inhibitory concentration (IC50) at CSF1R (setting [2]) came out at 5.4 ± 2.4 nM. Turning to `CN(CC1CCCCC1)c1ncnc2[nH]c(-c3ccc(CN4CCOCC4)cc3)nc12` [TIA04-117, N-(Cyclohexylmethyl)-N-methyl-8-(4-(4-morpholinomethyl)phenyl)-9H-purin-6-amine], the “MAPK (fold)” value in test [1] was found to be 1.2 fold. Moreover, at CSF1R (setting [2]), the IC50 is 1.2 ± 0.2 nM.

`COc1cccc(CN(C)c2ncnc3[nH]c(-c4ccc(CCC(=O)O)cc4)cc23)c1` [FAB01-23, 3-(4-(4-((3-Methoxybenzyl)(methyl)amino)-7H-pyrrolo[2,3-d]pyrimidin-6-yl)phenyl)propanoic acid]: the “MAPK (fold)” value in test [1] is reported as over 5 fold. This molecule yielded an IC50 at CSF1R of 0.2 nM. For `CN(Cc1ccccc1)c1ncnc2[nH]c(-c3ccccc3CO)nc12` [JKS02-027, (2-(6-(Benzyl(methyl)amino)-9H-purin-8-yl)phenyl)methanol], the “MAPK (fold)” value in test [1] is over 3 fold. The 50% inhibitory concentration (IC50) on CSF1R (setting [2]) is 1.2 ± 0.2 nM. For `COc1ccc(CN(C)c2ncnc3[nH]c(-c4ccc(CCC(=O)O)cc4)cc23)cc1OC` [FAB 01-24, 3-(4-(4-((3,4-Dimethoxybenzyl)(methyl)amino)-7H-pyrrolo[2,3-d]pyrimidin-6-yl)phenyl)propanoic acid] the same measures were over 5 fold and 0.6 nM.

Consider `CN1CCCC(CN(C)c2ncnc3[nH]c(-c4ccc(CO)cc4)nc23)C1` (centres unmarked) [TIA04-063, N-Methyl-N-(1-methylpiperidin-3-ylmethyl)-8-(4-(hydroxymethyl)phenyl)-9H-purin-6-amine], for which the “MAPK (fold)” value in test [1] was over 3 fold. In addition, the half-inhibitory concentration (IC50) on CSF1R (setting [2]) is 53 ± 4 nM. `CN(CC1CCOC1)c1ncnc2[nH]c(-c3ccc(CO)cc3)nc12` (centres unmarked) [TIA04-049, N-Methyl-N-(tetrahydrofuran-3-ylmethyl)-8-(4-(hydroxymethyl)phenyl)-9H-purin-6-amine]: the “MAPK (fold)” value in test [1] was over 3 fold. Further, at CSF1R (setting [2]), the 50% inhibitory concentration (IC50) worked out at 4.6 ± 0.6 nM. With `CN(CC1CCOCC1)c1ncnc2[nH]c(-c3ccc(CO)cc3)nc12` [TIA04-051, N-Methyl-N-(oxan-4-ylmethyl)-8-(4-(hydroxymethyl)phenyl)-9H-purin-6-amine], the “MAPK (fold)” value in test [1] is given as 1 fold. The half-inhibitory concentration (IC50) on CSF1R (setting [2]) was determined as 0.3 nM. As to `Cc1cccc(CN(C)c2ncnc3[nH]c(-c4ccc(C5CCCC(=O)O5)cc4)cc23)c1` (centres unmarked) [LR-1-124, 6-(4-(4-(Methyl(3-methylbenzyl)amino)-7H-pyrrolo[2,3-d]pyrimidin6-yl)phenyl)tetrahydro-2H-pyran-2-one], in test [1], the “MAPK (fold)” value turned out to be 2.1 fold. Also, on CSF1R (setting [2]), the 50% inhibitory concentration (IC50) stood at 0.8 ± 0.1 nM. For the molecule `CN(Cc1cccnc1)c1ncnc2[nH]c(-c3ccc(CO)cc3)nc12` [TIA02-166, N-Methyl-N-(pyridin-3-ylmethyl)-8-(4-(hydroxymethyl)phenyl)-9H-purin-6-amine], the “MAPK (fold)” value in test [1] is reported as over 3 fold. The IC50 on CSF1R (setting [2]) turned out to be 2.1 ± 0.4 nM. As for `CN(CC1CCCCC1)c1ncnc2[nH]c(-c3ccc(CO)cc3)cc12` [TIA05-090, (4-(4-((Cyclohexylmethyl)(methyl)amino)-7H-pyrrolo[2,3-d]pyrimidin-6-yl)phenyl)methanol], the “MAPK (fold)” value in test [1] is recorded as 1.0 fold. The half-maximal inhibitory concentration (IC50) at CSF1R (setting [2]) came out at 0.3 nM. For `CN(Cc1ccc(F)cc1)c1ncnc2[nH]c(-c3ccc(CO)cc3)nc12` [TIA02-134, N-Methyl-N-(4-fluorobenzyl)-8-(4-(hydroxymethyl)phenyl)-9H-purin-6-amine], in test [1], the “MAPK (fold)” value was over 3 fold. For the same molecule, at CSF1R (setting [2]), the IC50 worked out at 8.8 ± 0.3 nM. For the molecule `CN(CC1CCCCO1)c1ncnc2[nH]c(-c3ccc(CO)cc3)nc12` (centres unmarked) [TIA04-095, N-Methyl-N-(oxan-2-ylmethyl)-8-(4-(hydroxymethyl)phenyl)-9H-purin-6-amine], the “MAPK (fold)” value in test [1] was over 3 fold. The 50% inhibitory concentration (IC50) on CSF1R (setting [2]) came out at 1.3 ± 0.2 nM. For `CN(CC1CCCO1)c1ncnc2[nH]c(-c3ccc(CO)cc3)nc12` (centres unmarked) [TIA04-093, N-Methyl-N-(tetrahydrofuran-2-ylmethyl)-8-(4-(hydroxymethyl)phenyl)-9H-purin-6-amine], in test [1], the “MAPK (fold)” value was over 3 fold. Besides, the IC50 on CSF1R (setting [2]) was found to be 2.6 ± 0.3 nM.

As to `CN(Cc1ccccc1O)c1ncnc2[nH]c(-c3ccc(CO)cc3)nc12` [TIA04-009, N-Methyl-N-(2-hydroxybenzyl)-8-(4-(hydroxymethyl)phenyl)-9H-purin-6-amine], in test [1], the “MAPK (fold)” value is over 3 fold. Besides, the IC50 at CSF1R (setting [2]) was determined as 2.3 ± 0.3 nM.

For `Cc1cccc(CN(C)c2ncnc3[nH]c(-c4ccc(CO)cc4)nc23)c1` [TIA02-172, N-Methyl-N-(3-methylbenzyl)-8-(4-(hydroxymethyl)phenyl)-9H-purin-6-amine], the “MAPK (fold)” value in test [1] is listed as over 5 fold. Further, the IC50 at CSF1R (setting [2]) was found to be 1.5 ± 0.2 nM. With `COc1ccccc1CN(C)c1ncnc2[nH]c(-c3ccc(CO)cc3)nc12` [TIA03-106, N-(2-Methoxybenzyl)-N-methyl-8-(4-(hydroxymethyl)phenyl)-9H-purin-6-amine], the “MAPK (fold)” value in test [1] is over 3 fold. At CSF1R (setting [2]), the concentration for half-maximal inhibition (IC50) amounted to 4.2 ± 1.4 nM.

Regarding `COc1ccc(CN(C)c2ncnc3[nH]c(-c4ccc(CO)cc4)nc23)cc1` [TIA03-078, N-(4-Methoxybenzyl)-N-methyl-8-(4-(hydroxymethyl)phenyl)-9H-purin-6-amine], on CSF1R (setting [2]), the IC50 was 61 ± 3 nM. The same measure, in the same setting: the result for `CN(Cc1c(F)cccc1F)c1ncnc2[nH]c(-c3ccc(CN4CCOCC4)cc3)cc12` [SH-01-129, N-(2,6-Difluorobenzyl)-N-methyl-6-(4-(morpholinomethyl)phenyl)-7H-pyrrolo[2,3-d]pyrimidin-4-amine] reads 1.2 nM. Take `Cc1ccc(F)c(CN(C)c2ncnc3[nH]c(-c4ccc(CN5CCOCC5)cc4)cc23)c1F` [SH-01-128, N-(2,6-Difluoro-3-methylbenzyl)-N-methyl-6-(4-(morpholinomethyl)phenyl)-7H-pyrrolo[2,3-d]pyrimidin-4-amine]: the concentration for half-maximal inhibition (IC50) on CSF1R (setting [2]) is 0.8 nM.
